Patent US10604696B2, “Process for acidizing” (Cleansorb Limited, priority 2014, dated 2020)

Key:
[1] = Calcium salt precipitation following acidising of calcium carbonate in fresh water; type: physicochemical
Source text: The dissolving capacities of delta glucono lactone and […] (a formic acid precursor commercially available from Cleansorb Limited of Guildford, UK) and their capacity for precipitation of calcium salts is shown in Table 1.

[2] = Calcium salt precipitation at 5° C. from spent acidizing solutions; type: physicochemical; settings: 2.7 g CaCO3 in 100 ml, 65 hours at approximately 25° C., then 20 hours at 5° C.
Protocol: 100 ml solutions were prepared in deionised water in 100 ml Duran bottles: 2.7 g of laboratory grade CaCO3 was added to each solution. Acidizing was allowed to proceed at room temperature (approximately 25° C.) for 65 hours. To simulate the effect of low temperature spent acidizing solutions were placed in a refrigerator at 5° C. and observed at 20 hours for the presence of any precipitate.

Calcium salt precipitated following acidising of calcium carbonate in fresh water ([1]; acid precursor used at 1% w/v): No | Calcium salt precipitated following acidising of calcium carbonate in fresh water ([1]; acid precursor used at 2% w/v): No | Calcium salt precipitated following acidising of calcium carbonate in fresh water ([1]; acid precursor used at 3% w/v): Yes | Calcium salt precipitated following acidising of calcium carbonate in fresh water ([1]; acid precursor used at 5% w/v): Yes | Calcium salt precipitated following acidising of calcium carbonate in fresh water ([1]; acid precursor used at 10% w/v): Yes | Calcium salt precipitated at 5° C. following acidising ([2]; 10% w/v glucono delta lactone plus sodium acetate 5% w/v): No | Calcium salt precipitated at 5° C. following acidising ([2]; 10% w/v glucono delta lactone plus sodium lactate 60% solution 10.8% w/v): No | Calcium salt precipitated at 5° C. following acidising ([2]; 10% w/v glucono delta lactone, no additional component): Yes | Calcium salt precipitated at 5° C. following acidising ([2]; 22% w/v glucono delta lactone plus sodium acetate 5% w/v): No | Calcium salt precipitated at 5° C. following acidising ([2]; 22% w/v glucono delta lactone plus sodium lactate 60% solution 10.8% w/v): No | Calcium salt precipitated at 5° C. following acidising ([2]; 22% w/v glucono delta lactone, no additional component): Yes
Structure (SMILES): O=C1O[C@H](CO)[C@@H](O)[C@H](O)[C@H]1O [Glucono delta lactone, D-(+)-Gluconic acid δ-lactone]
